Laboratory results taken from patent US10633376B2, “Crystalline forms of JAK1-selective inhibitor, processes for preparation and use thereof” (Crystal Pharmaceutical (Suzhou) Co., Ltd., priority 2016, dated 2020).
In brackets after ≈: the same amount, converted by molar mass. Entries after “also recorded” stand apart in the source; their conditions may differ. Where two headings read alike, the source gives them in different places.

How the values were obtained:
[1] = clinical trials by Gilead; cited from earlier work
[2] = prior art patents; cited from earlier work
[3] = 92.5% humidity for 5 days and 10 days, XRPD; cited from earlier work
[4] = Stability study of crystalline form on storage, XRPD; type: physicochemical; settings: 3 weeks
Procedure: Form CS1 of the present disclosure was stored under 25° C./60% RH and 40° C./75% RH for 3 weeks. Form CS2 of the present disclosure was stored under 25° C./60% RH, 40° C./75% RH and 60° C./75% RH for 3 weeks.

[5] = Solubility comparison study, saturated solutions measured by HPLC; type: physicochemical; settings: for Solubility in FaSSIF 1 h: FaSSIF pH=6.5, 1 h; for Solubility in FaSSIF 4 h: FaSSIF pH=6.5, 4 h; for Solubility in FaSSIF 24 h: FaSSIF pH=6.5, 24 h
Procedure: Saturated solutions of Form CS1, Form CS2 of the present disclosure and Pattern 4 in patent CN105960407A (hereinafter referred to as patent Pattern 4) were prepared in SGF (simulated gastric fluids), FeSSIF (fed state simulated intestinal fluids, pH=5.0), FaSSIF (fasted state simulated intestinal fluids, pH=6.5) and pure water. After equilibrated for 1 h, 4 h and 24 h, concentrations of the saturated solutions were measured by HPLC.

[6] = Hygroscopicity by dynamic vapor sorption (DVS); type: physicochemical
Procedure: Dynamic Vapor Sorption (DVS) is measured via a SMS (Surface Measurement Systems Ltd.) intrinsic DVS instrument. Its control software is DVS-Intrinsic control software, and its analysis software is DVS-Intrinsic Analsis software. Typical Parameters for DVS test are as follows:
Gas and flow rate: N2, 200 mL/min
RH range: 0% RH to 95% RH
Dynamic vapor sorption (DVS) was applied to test hygroscopicity of Form CS2 and Pattern 4 in patent CN105960407A (hereinafter referred to as patent Pattern 4) on about 10 mg of samples. The weight gains at each relative humidity were recorded in a cycle of 0-95%-0 RH.

[7] = Mechanical stability study, XRPD before and after grinding; type: physicochemical
Excerpt: XRPD was applied to test the crystalline forms of Form CS2, Form CS3 and Pattern 4 in patent CN105960407A before and after grinding. The test results were shown in FIG. 20, FIG. 21 and FIG. 22.

In the case of `O=C(Nc1nc2cccc(-c3ccc(CN4CCS(=O)(=O)CC4)cc3)n2n1)C1CC1` [Filgotinib, N-[5-[4-[(1,1-dioxo-1-thiomorpholin-4-yl)methyl]phenyl][1,2,4]triazolo [1,5-a]pyridin-2-yl]cyclopropanecarboxamide], the “Anemia and abnormal increase in low density lipoprotein (LDL)” value [1] is given as “does not cause an anemia and abnormal increase in low density lipoprotein (LDL)”.
In the case of `O=C(Nc1nc2cccc(-c3ccc(CN4CCS(=O)(=O)CC4)cc3)n2n1)C1CC1` [Form B of free form], the Solubility in water [2] is given as “The solubility in water is 41.28 μg/mL. The yield is low,” and the Stability [3] is given as “Stability is poor. Sample was tested by XRPD after being”.
For `O=C(Nc1nc2cccc(-c3ccc(CN4CCS(=O)(=O)CC4)cc3)n2n1)C1CC1` [Form C of free form], the Solubility in water [2] is listed as “The solubility in water is 42.22 μg/mL. The yield is low” and the Stability [3] is listed as “Stability is poor. Sample was tested by XRPD after being”.
For `O=C(Nc1nc2cccc(-c3ccc(CN4CCS(=O)(=O)CC4)cc3)n2n1)C1CC1` [Form CS1], the Solid form change ([4]; 25° C./60% RH) was “doesn't change; also recorded: No form change of Form CS1”, the Solid form change ([4]; 40° C./75% RH) was “doesn't change; also recorded: No form change of Form CS1” and the “Solubility in FaSSIF 1 h” value [5] was 120 µg/mL (≈ 282 µM). For the same compound, the “Solubility in FaSSIF 4 h” value [5] was 110 µg/mL (≈ 259 µM), the “Solubility in FaSSIF 24 h” value [5] was 120 µg/mL (≈ 282 µM) and the “Solubility in SGF 1 h” value ([5]; SGF (pH=1.8)) was 3230 µg/mL (≈ 7590 µM). For the same compound, the “Solubility in SGF 4 h” value ([5]; SGF (pH=1.8), 4 h) was 3300 µg/mL (≈ 7760 µM), the “Solubility in SGF 24 h” value ([5]; SGF (pH=1.8), 24 h) was 820 µg/mL (≈ 1930 µM) and the solubility at 1 h ([5]; fed state simulated intestinal fluid (FeSSIF), pH 5, fessif, thermodynamic from solid, FeSSIF pH=5.0, 1 h) was 200 µg/mL (≈ 470 µM). For the same compound, the solubility at 4 h ([5]; fed state simulated intestinal fluid (FeSSIF), pH 5, fessif, thermodynamic from solid, FeSSIF pH=5.0, 4 h, read-out: Solubility in FeSSIF 4 h) was 200 µg/mL (≈ 470 µM), the solubility at 24 h ([5]; fed state simulated intestinal fluid (FeSSIF), pH 5, fessif, thermodynamic from solid, FeSSIF pH=5.0, 24 h, read-out: Solubility in FeSSIF 24 h) was 250 µg/mL (≈ 588 µM) and the “Solubility in water 1 h” value ([5]; pure water) was 120 µg/mL (≈ 282 µM). For the same compound, the “Solubility in water 4 h” value ([5]; pure water, 4 h) was 90 µg/mL (≈ 212 µM) and the “Solubility in water 24 h” value ([5]; pure water, 24 h) was 210 µg/mL (≈ 494 µM).
For `O=C(Nc1nc2cccc(-c3ccc(CN4CCS(=O)(=O)CC4)cc3)n2n1)C1CC1` [Form CS2], the Hygroscopicity class ([6]; 80% RH, Chinese Pharmacopoeia 2015 definition) was “almost non-hygroscopic; also recorded: almost no hygroscopic”, the “Form change after DVS” value ([6]; XRPD before and after DVS cycle 0-95%-0 RH) was “no form change was observed” and the Solid form change ([4]; 25° C./60% RH) was “doesn't change; also recorded: No form change of Form CS2”. For the same compound, the Solid form change ([4]; 40° C./75% RH) was “doesn't change; also recorded: No form change of Form CS2”, the Solid form change ([4]; 60° C./75% RH) was “doesn't change; also recorded: No form change of Form CS2” and the “Solubility in FaSSIF 1 h” value [5] was 50 µg/mL (≈ 118 µM). The “Solubility in FaSSIF 4 h” value [5] was 50 µg/mL (≈ 118 µM), the “Solubility in FaSSIF 24 h” value [5] was 40 µg/mL (≈ 94 µM) and the “Solubility in FeSSIF 1 h” value ([5]; FeSSIF pH=5.0, 1 h) was 90 µg/mL (≈ 212 µM). The “Solubility in FeSSIF 4 h” value ([5]; FeSSIF pH=5.0, 4 h) was 100 µg/mL (≈ 235 µM), the “Solubility in FeSSIF 24 h” value ([5]; FeSSIF pH=5.0, 24 h) was 80 µg/mL (≈ 188 µM) and the “Solubility in SGF 1 h” value ([5]; SGF (pH=1.8)) was 1310 µg/mL (≈ 3080 µM). For the same compound, the “Solubility in SGF 4 h” value ([5]; SGF (pH=1.8), 4 h) was 1320 µg/mL (≈ 3100 µM), the “Solubility in water 1 h” value ([5]; pure water) was 40 µg/mL (≈ 94 µM) and the “Solubility in water 24 h” value ([5]; pure water, 24 h) was 40 µg/mL (≈ 94 µM). The solubility at 4 h ([5]; pure water, water, thermodynamic from solid, pure water, 4 h, read-out: Solubility in water 4 h) was 40 µg/mL (≈ 94 µM), the solubility at 24 h ([5]; simulated gastric fluid (SGF), pH 1.8, simulated gastric fluid, thermodynamic from solid, SGF (pH=1.8), 24 h, read-out: Solubility in SGF 24 h) was 560 µg/mL (≈ 1320 µM) and the “Mechanical stability (crystalline form after grinding)” value [7] was “better mechanical stabilities; also recorded: don't change after grinding; also recorded: without crystal transformation observed during grinding”.
For `O=C(Nc1nc2cccc(-c3ccc(CN4CCS(=O)(=O)CC4)cc3)n2n1)C1CC1` [Form D of free form], the Solubility in water [2] is listed as “solubility in water is 55.26 μg/mL. The yield is low and is” and the Stability [3] is listed as “Stability is poor. XRPD is tested after being placed at”.
For `O=C(Nc1nc2cccc(-c3ccc(CN4CCS(=O)(=O)CC4)cc3)n2n1)C1CC1` [Form E of free form], the Stability [3] is listed as “Stability is poor. XRPD is tested after being placed at”.
In the case of `O=C(Nc1nc2cccc(-c3ccc(CN4CCS(=O)(=O)CC4)cc3)n2n1)C1CC1` [Form F of free form], the Solubility in water [2] is given as “The solubility is low. The solubility in water is 50.98 μg/mL”.
For `O=C(Nc1nc2cccc(-c3ccc(CN4CCS(=O)(=O)CC4)cc3)n2n1)C1CC1` [Form H of free form], the Solubility in water [2] is given as “solubility in water is 12.77 μg/mL”.
For `O=C(Nc1nc2cccc(-c3ccc(CN4CCS(=O)(=O)CC4)cc3)n2n1)C1CC1` [Pattern 4, reference compound], the “Solubility in FaSSIF 1 h” value ([5]; listed as Patent Pattern 4) was 20 µg/mL (≈ 47 µM), the “Solubility in FaSSIF 4 h” value ([5]; listed as Patent Pattern 4) was 20 µg/mL (≈ 47 µM) and the “Solubility in FaSSIF 24 h” value ([5]; listed as Patent Pattern 4) was 20 µg/mL (≈ 47 µM). For the same compound, the “Solubility in FeSSIF 1 h” value ([5]; FeSSIF pH=5.0, 1 h, listed as Patent Pattern 4) was 30 µg/mL (≈ 70.5 µM), the “Solubility in FeSSIF 4 h” value ([5]; FeSSIF pH=5.0, 4 h, listed as Patent Pattern 4) was 30 µg/mL (≈ 70.5 µM) and the “Solubility in FeSSIF 24 h” value ([5]; FeSSIF pH=5.0, 24 h, listed as Patent Pattern 4) was 30 µg/mL (≈ 70.5 µM). The “Solubility in SGF 1 h” value ([5]; SGF (pH=1.8), listed as Patent Pattern 4) was 1020 µg/mL (≈ 2400 µM), the “Solubility in SGF 4 h” value ([5]; SGF (pH=1.8), 4 h, listed as Patent Pattern 4) was 1070 µg/mL (≈ 2510 µM) and the “Solubility in SGF 24 h” value ([5]; SGF (pH=1.8), 24 h, listed as Patent Pattern 4) was 460 µg/mL (≈ 1080 µM). For the same compound, the “Solubility in water 1 h” value ([5]; pure water, listed as Patent Pattern 4) was 20 µg/mL (≈ 47 µM), the “Solubility in water 4 h” value ([5]; pure water, 4 h, listed as Patent Pattern 4) was 10 µg/mL (≈ 23.5 µM) and the “Solubility in water 24 h” value ([5]; pure water, 24 h, listed as Patent Pattern 4) was 10 µg/mL (≈ 23.5 µM). The “Mechanical stability (crystalline form after grinding)” value [7] was “poor mechanical stability”.
